Reference: patent US20240264169A1, “METHOD FOR THE QUANTIFICATION OF THE ACTIVATION STATE OF G-PROTEIN-COUPLED RECEPTORS IN A HUMAN BIOLOGICAL SAMPLE” (ALDA S.R.L., priority 2021, published 2024)
“And” between values parts separate entries of the source, which are not always exact repeats. Equal entries are not always repeated.

How the values were obtained:
Type in all cases: cell-based
human neutrophils [1] = test: Neutrophil morphology upon fixation (spherical vs polarized)
Description: (§1) Precisely this last aspect, however, offers added value in monitoring the interaction of the receptor with β-Arrestin. Indeed, in this scenario, the maximum interaction value between these two proteins is recorded 8 to 12 minutes after the interleukin stimulus. The measurement of the activation state occurs within a defined time window, the beginning of which coincides with the time of sampling (FIG. 1a). By subjecting the blood aliquots to a stasis under controlled conditions, it is possible to obtain a homogeneous activation state among the neutrophils in the control sample, estimated by quantifying the amount of receptor that is bound to β-Arrestin at the time of fixation. […] The amount of activation is obtained by difference with the basal state, which corresponds to the amount of desensitized receptor found after the same time interval in each experiment. The correlation between FRET signal intensity and morphology (FIG. 4c) allows us to assess the effectiveness of the inhibitor: the change in morphology from spherical to polarized in the presence of high FRET, indicates the persistence of a G-protein pathway-mediated signal. In contrast, the presence of high FRET in perfectly spherical cells (indistinguishable from those observed in the control aliquot), is an indication of high desensitization of the receptor by β-Arrestins, and thus the inhibitor is able to promote deactivation of the receptor, with the effect of a drastic reduction in G-protein-mediated signaling.
Thus, the treatment with allosteric inhibitors generates high receptor desensitization. However, if IL-8 treatment is conducted in the presence of allosteric inhibitor, neutrophil morphology is maintained spherical even under stimulated conditions. […] In the quiescent or competitive inhibition condition, the neutrophil consistently retains a spherical morphology.
The most striking difference between the condition in which the sample is treated with IL-8 and the condition in which the sample is pretreated with inhibitor and then subjected to the IL-8 stimulus concerns morphology. […]

human neutrophils [2] = test: Cell count after treatment of blood sample
Source text: Another aspect that strongly distinguishes the sample activated with IL8 alone and the IL8_+_navarixin sample is the cell count after treatment.

CXCR1//ArrB interaction = target: T1, CXCR1//ArrB interaction (Homo sapiens, UniProt P25024); test: FRET assay (intensity-based acceptor photobleaching) of CXCR1//β-Arrestin interaction on neutrophils
T1 construct: expression and localization of endogenous CXCR1 protein; endogenous in cells; host or cells: human neutrophils in venous blood aliquots
T1 sequence (P25024 1-350): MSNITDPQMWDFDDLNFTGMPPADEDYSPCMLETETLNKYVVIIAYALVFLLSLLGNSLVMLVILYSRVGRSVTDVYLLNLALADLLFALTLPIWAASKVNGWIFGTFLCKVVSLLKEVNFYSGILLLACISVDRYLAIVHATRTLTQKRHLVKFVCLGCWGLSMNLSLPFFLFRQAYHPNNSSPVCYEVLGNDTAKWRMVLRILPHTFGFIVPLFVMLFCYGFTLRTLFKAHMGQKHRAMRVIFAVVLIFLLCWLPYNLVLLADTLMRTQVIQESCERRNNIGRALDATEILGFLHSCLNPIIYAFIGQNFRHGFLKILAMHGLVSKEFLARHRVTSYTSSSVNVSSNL
Source text: Next, the measured FRET efficiency is related to the abundance of the interaction between the donor and acceptor probe within each pixel of the image. Detection of the FRET signal consists of a precise estimate of the fluorescent emission (FD) intensity or emission decay rate (<τ>) of the donor probe. The quantization of FD in a biological sample appears to be inexpensive in terms of complexity and cost of the instrumentation required for analysis. […] Below is the formula used to calculate the FRET (pixel by pixel) efficiency shown in the images reported in this study:
as §1, with “signal.” for “signal. In contrast, the presence of high FRET in perfectly spherical cells (indistinguishable from those observed in the control aliquot), is an indication of high desensitization of the receptor by β-Arrestins, and thus the inhibitor is able to promote deactivation of the receptor, with the effect of a drastic reduction in G-protein-mediated signaling.”
Next, the FRET assay for measuring the CXCR1//ArrB interaction on neutrophils was repeated, operating in triplicate (FIG. 4). A first control sample, CTRL-DMSO, corresponds to the sample set at 30 minutes; this time is required for neutrophils to return to a resting state after mechanical activation due to handling. […] Values reported refer to the measurements on 15 neutrophil cells of donor fluorophore de-quenching following acceptor photo-bleaching, obtained by the INTENSITY-BASED ACCEPTOR PHOTOBLEACHING approach (FIG. 7 and Table 1).
The CTRL of each triplicate consists of a sister sample subjected to the same treatment conditions unless drug addition. Exclusively for the time zero sample, fixation was carried out at about one minute after sampling, and the analysis reported high FRET probably due to heterologous desensitization. For all remaining samples, fixation was performed at 30 minutes after sampling, an interval of time during which the drug was allowed to act, directly added to the tube of each treated sample.

[3] = target: T2, CXCR1-βArrestin2 interaction (Homo sapiens, UniProt P25024); test: FRET-FLIM donor probe lifetime measurement, anti-CXCR1 donor / anti-βArrestin2 acceptor, neutrophils; conditions: Reparixin 100 μg/ml; one value per cell (3 cells); Levenberg-Marquardt fitting; Control 2.57-2.63, Donor only 2.64-2.67
T2 construct: expression and localization of endogenous CXCR1 protein; endogenous in cells; host or cells: human neutrophils in venous blood aliquots
T2 sequence (P25024 1-350): T1 sequence (P25024 1-350)
Source text: The fitting model used is bi-exponential and the measurement is repeated for each individual neutrophil: a global decay curve consisting of the summation of the curves recorded in all the pixels that make up the analyzed cell is generated for each of them. The rate of decay of the fluorescence intensity of the total donor population (bound and unbound receptor) is of the exponential type and follows the trend described by the formula:
The decay acquired in each region of interest (ROI) corresponds to the lifetime obtained from the cumulative histogram consisting of the summation of all pixels contained in the ROL The histogram is interpolated by bi-exponential fitting, and the lifetime calculated on the two components (A1 and A2) with the following equation:
The expression used to calculate the FRET efficiency by using the FLIM technique is as follows:
where tD is the absolute donor lifetime, measured in a sample containing only the donor probe, and tD-A is the donor lifetime in a sample subjected to the same condition, in which both donor and acceptor probes are present.
To correctly interpret the following graph (FIG. 8b), remember that the presence of interaction induces a lowering of the donor probe lifetime; this lowering is quantified by the slope of the decay curve, which corresponds to the donor probe lifetime (τ). The value of τ can be derived numerically from the nonlinear fitting of the decay curve.
The Levenberg-Marquardt algorithm, which is based on the method of least squares, was used for nonlinear fitting of the recorded decay curves.
The values of r extrapolated from the nonlinear fitting by using the Levenberg-Marquardt algorithm were further verified using the maximum likelihood estimation (MLE) method, which allows for greater accuracy in evaluating the parameters obtained from the statistical distribution of photonic phenomena (such as the decay of a fluorophore's emission), as these phenomena are generally governed by a Poissonian distribution. The values shown in the table are those calculated exclusively by the Levenberg-Marquardt algorithm.

CXCR1-GaI interaction = target: T3, CXCR1-GaI interaction (Homo sapiens, UniProt P25024); test: FRET-FLIM analysis of the CXCR1-GaI interaction pair; conditions: in the presence of IL-8 (10 nM)
T3 construct: expression and localization of endogenous CXCR1 protein; endogenous in cells; host or cells: human neutrophils
T3 sequence (P25024 1-350): T1 sequence (P25024 1-350)
Description: The receptor activation status was measured through the quantification of CXCR1-GaI and CXCR1-Arrestin interactions. […] In this circumstance, the minimum value of FRET is assumed, which serves as an internal control.

[4] = IL-8 treatment in the presence of allosteric inhibitor
[5] = REPARIXIN 100 ugmL-1, 30 min, 15 neutrophil cells, each column one of triplicate samples

| Molecule | neutrophil morphology (human neutrophils [1]; [4]) | number of cells compared to control (human neutrophils [2]; sample pretreated with inhibitor, then stimulated with IL-8) | FRET (donor de-quenching after acceptor photobleaching), Mean (CXCR1//ArrB interaction; [5]) | FRET (donor de-quenching after acceptor photobleaching), Median (CXCR1//ArrB interaction; [5]) | FRET in analyzed cells (CXCR1//ArrB interaction; Reparixin 40 ug/ml, two of the three samples) | FRET versus control (interaction with β-Arrestins) (CXCR1//ArrB interaction; combined treatment IL-8 + allosteric inhibitor) | FRET in analyzed cells (CXCR1//ArrB interaction; highest concentration of Reparixin (100 μg/mL), 30 min) | τ (donor probe lifetime) [3] | amount of receptor in the desensitized state (in complex with b-Arrestin2) (CXCR1//ArrB interaction; IL-8 stimulation, in presence and absence of allosteric modulator) | time of maximum receptor-β-Arrestin interaction after stimulus (CXCR1//ArrB interaction; after the interleukin stimulus) [min] | neutrophil morphology (human neutrophils [1]; IL-8 treatment, inhibitor absent) | cells found at the time of fixation relative to control (human neutrophils [2]; sample stimulated with IL-8 alone) | signal lifetime versus non-activated control (CXCR1-GaI interaction) |
| --- | --- | --- | --- | --- | --- | --- | --- | --- | --- | --- | --- | --- | --- |
| CC[C@@H](Nc1c(Nc2cccc(C(=O)N(C)C)c2O)c(=O)c1=O)c1ccc(C)o1 [Navarixin] | spherical | same number of cells |  |  |  |  |  |  |  |  |  |  |  |
| CC(C)Cc1ccc([C@@H](C)C(=O)NS(C)(=O)=O)cc1 [Reparixin] | spherical |  | 32.35 and 27.67 and 32.60 | 38.96 and 21.92 and 35.03 | many cells with FRET values equal to the control | higher than control | high in many cells | 2.05 and 2.12 and 2.1 |  |  |  |  |  |
| interleukin-8 [IL-8] |  |  |  |  |  |  |  |  | significant increase | 8 to 12 | polarized | about 20% | decrease in signal lifetime |
